Laboratory results reported in US8933089B2, “HIV inhibiting 5-amido substituted pyrimidines” (Janssen R & D Ireland, priority 2006, dated 2015).

How the values were obtained:
Type in all cases: cell-based, HIV-1
HIV strain L100I = assay: Cellular anti-HIV assay in MT4 LTR-EGFP cells, mutant L100I; conditions: Human immunodeficiency virus 1, read-out: L100I pEC50 (converted)
Description: (§1) Because of the increasing emergence of drug resistant HIV strains, the present compounds were tested for their potency against clinically isolated HIV strains harbouring several mutations. These mutations are associated with resistance to reverse transcriptase inhibitors and result in viruses that show various degrees of phenotypic cross-resistance to the currently commercially available drugs such as for instance AZT and delavirdine.
(§2) The antiviral activity of the compound of the present invention has been evaluated in the presence of wild type HIV and HIV mutants bearing mutations at the reverse transcriptase gene. The activity of the compounds is evaluated using a cellular assay which was performed according to the following procedure.
(§3) The human T-cell line MT4 is engineered with Green Fluorescent Protein (GFP) and an HIV-specific promoter, HIV-1 long terminal repeat (LTR). This cell line is designated MT4 LTR-EGFP, and can be used for the in vitro evaluation of anti-HIV activity of investigational compounds. In HIV-1 infected cells, the Tat protein is produced which upregulates the LTR promotor and finally leads to stimulation of the GFP reporter production, allowing to measure ongoing HIV-infection fluorometrically. Analogously, MT4 cells are engineered with GFP and the constitutional cytomegalovirus (CMV) promotor. This cell line is designated MT4 CMV-EGFP, and can be used for the in vitro evaluation of cytotoxicity of investigational compounds. In this cell line, GFP levels are comparably to those of infected MT4 LTR-EGFP cells. Cytotoxic investigational compounds reduce GFP levels of mock-infected MT4 CMV-EGFP cells.
(§4) Effective concentration values such as 50% effective concentration (EC50) can be determined and are usually expressed in μM. An EC50 value is defined as the concentration of test compound that reduces the fluorescence of HIV-infected cells by 50%. The 50% cytotoxic concentration (CC50 in μM) is defined as the concentration of test compound that reduces fluorescence of the mock-infected cells by 50%. The ratio of CC50 to EC50 is defined as the selectivity index (SI) and is an indication of the selectivity of the anti-HIV activity of the inhibitor. The ultimate monitoring of HIV-1 infection and cytotoxicity is done using a scanning microscope. Image analysis allows very sensitive detection of viral infection. Measurements are done before cell necrosis, which usually takes place about five days after infection, in particular measurements are performed three days after infection.
(§5) The columns IIIB, L100I, etc. in the table list the pEC50 values against various strains IIIB, L100I, etc.

HIV strain Y181C = assay: Cellular anti-HIV assay in MT4 LTR-EGFP cells, mutant Y181C; conditions: Human immunodeficiency virus 1, read-out: Y181C pEC50 (converted)
Description: as §1, §2, §3, §4, §5

HIV strain K103N + Y181C = assay: Cellular anti-HIV assay in MT4 LTR-EGFP cells, mutant K103N + Y181C; conditions: Human immunodeficiency virus 1, 72 h, read-out: K103N + Y181C pEC50 (converted)
Description: as §1, §2, §3, §4, §5

HIV strain K103N = assay: Cellular anti-HIV assay in MT4 LTR-EGFP cells, mutant K103N; conditions: Human immunodeficiency virus 1, read-out: K103N pEC50 (converted)
Description: as §1, §2, §3, §4, §5

HIV strain Y188L = assay: Cellular anti-HIV assay in MT4 LTR-EGFP cells, mutant Y188L; conditions: Human immunodeficiency virus 1, read-out: Y188L pEC50 (converted)
Description: as §1, §2, §3, §4, §5

[1] = tested on: HIV strain IIIB (wild type); assay: Cellular anti-HIV assay in MT4 LTR-EGFP cells, strain IIIB (wild type); selectivity index versus cytotoxicity in mock-infected MT4 CMV-EGFP cells; conditions: for EC50: Human immunodeficiency virus 1, 72 h, wild type HIV strain IIIB, MT4 LTR-EGFP cells, fluorescence, three days after infection, read-out: IIIB pEC50 (converted); for IIIB pSi: selectivity index = ratio of CC50 (mock-infected MT4 CMV-EGFP cells) to EC50 (IIIB), given as p value
Description: as §2, §3, §4, §5
Strain IIIB is wild type HIV strain

HIV strain L100I + K103N = assay: Cellular anti-HIV assay in MT4 LTR-EGFP cells, mutant L100I + K103N; conditions: Human immunodeficiency virus 1, 72 h, read-out: L100I + K103N pEC50 (converted)
Description: as §1, §2, §3, §4, §5

HIV strain MDR = assay: Cellular anti-HIV assay in MT4 LTR-EGFP cells, MDR strain; conditions: Human immunodeficiency virus 1, read-out: MDR pEC50 (converted)
Description: as §1, §2, §3, §4, §5
MDR refers to a strain that contains mutations L100I, K103N, Y181C, E138G, V1791, L2214F, V278V/I and A327A/V in HIV reverse transcriptase.

Compound | EC50 (HIV strain L100I) [nM] | EC50 (HIV strain Y181C) [nM] | EC50 (HIV strain K103N + Y181C) [nM] | EC50 (HIV strain K103N) [nM] | EC50 (HIV strain Y188L) [nM] | EC50 [1] [nM] | IIIB pSi [1] | EC50 (HIV strain L100I + K103N) [nM] | EC50 (HIV strain MDR) [nM]
Cc1cc(/C=C/C#N)cc(C)c1Nc1nc(Nc2ccc(C#N)cc2)ncc1C(=O)N1CCCCC1 [Compound 2] | 63.1 | 126 | 501 | 12.6 | 398 | 3.16 | >3.90 | 200 | 10000
Cc1cc(/C=C/C#N)cc(C)c1Nc1nc(Nc2ccc(C#N)cc2)ncc1C(=O)Nc1ccccn1 [Compound 3] | 5.01 | 15.8 | 63.1 | 3.16 | 25.1 | 2 | 4.00 | 12.6 | 2510
Cc1cc(/C=C/C#N)cc(C)c1Nc1nc(Nc2ccc(C#N)cc2)ncc1C(=O)N(C)c1ccccc1 [Compound 5] | 25.1 | 100 | 158 | 10 | 100 | 5.01 | >3.70 | 50.1 | 3980
Cc1cc(/C=C/C#N)cc(C)c1Nc1nc(Nc2ccc(C#N)cc2)ncc1C(=O)N1CCN(C)CC1 [Compound 6] | 158 | 100 | 398 | 5.01 | 316 | 1.58 | >4.20 | 1260 | 10000
Cc1cc(/C=C/C#N)cc(C)c1Nc1nc(Nc2ccc(C#N)cc2)ncc1C(=O)N(C)CCO [Compound 7] | 7.94 | 20 | 63.1 | 2 | 50.1 | 1.58 | 4.00 | 50.1 | 2000
COCCCNC(=O)c1cnc(Nc2ccc(C#N)cc2)nc1Nc1c(C)cc(/C=C/C#N)cc1C [Compound 9] | 5.01 | 12.6 | 20 | 3.16 | 15.8 | 2.51 | >4.00 | 25.1 | 1000
Cc1cc(/C=C/C#N)cc(C)c1Nc1nc(Nc2ccc(C#N)cc2)ncc1C(=O)NCC1COC(C)(C)O1 (stereo not shown) [Compound 10] | 3.98 | 15.8 | 63.1 | 3.16 | 20 | 2.51 | >4.00 | 39.8 | 501
CCOC(=O)CN(C)C(=O)c1cnc(Nc2ccc(C#N)cc2)nc1Nc1c(C)cc(/C=C/C#N)cc1C [Compound 11] | 7.94 | 39.8 | 79.4 | 3.98 | 25.1 | 2 | 3.40 | 50.1 | 1580
Cc1cc(/C=C/C#N)cc(C)c1Nc1nc(Nc2ccc(C#N)cc2)ncc1C(=O)NCC1CCCO1 (stereo not shown) [Compound 12] | 2.51 | 15.8 | 12.6 | 2.51 | 10 | 1.26 | 4.10 | 20 | 1000
CCOC(=O)CCNC(=O)c1cnc(Nc2ccc(C#N)cc2)nc1Nc1c(C)cc(/C=C/C#N)cc1C [Compound 14] | 2.51 | 12.6 | 10 | 2.51 | 12.6 | 2.51 | >4.00 | 15.8 | 631
Cc1cc(/C=C/C#N)cc(C)c1Nc1nc(Nc2ccc(C#N)cc2)ncc1C(=O)NCc1ccncc1 [Compound 15] | 12.6 | 15.8 | 20 | 3.16 | 20 | 3.16 | 3.70 | 63.1 | 200
Cc1cc(/C=C/C#N)cc(C)c1Nc1nc(Nc2ccc(C#N)cc2)ncc1C(=O)Nc1cccc(Cl)c1 [Compound 16] | 79.4 | 200 | 316 | 3.98 | 501 | 25.1 | 2.60 | 501 | 7940
Cc1cc(/C=C/C#N)cc(C)c1Nc1nc(Nc2ccc(C#N)cc2)ncc1C(=O)NCc1ccco1 [Compound 19] | 3.98 | 20 | 20 | 3.98 | 20 | 3.98 | 3.60 | 50.1 | 1000
CONC(=O)c1cnc(Nc2ccc(C#N)cc2)nc1Nc1c(C)cc(/C=C/C#N)cc1C [Compound 23] | 5.01 | 15.8 | 7.94 | – | 15.8 | 3.98 | >3.80 | 12.6 | 794
Cc1ccc(CNC(=O)c2cnc(Nc3ccc(C#N)cc3)nc2Nc2c(C)cc(/C=C/C#N)cc2C)o1 [Compound 24] | 25.1 | 25.1 | 50.1 | – | 79.4 | 15.8 | 3.00 | 79.4 | 5010
COc1ccccc1CNC(=O)c1cnc(Nc2ccc(C#N)cc2)nc1Nc1c(C)cc(/C=C/C#N)cc1C [Compound 27] | 50.1 | 39.8 | 39.8 | 7.94 | 79.4 | 6.31 | >3.60 | – | 3160
Cc1cccc(CNC(=O)c2cnc(Nc3ccc(C#N)cc3)nc2Nc2c(C)cc(/C=C/C#N)cc2C)c1 [Compound 28] | 50.1 | 79.4 | 50.1 | 15.8 | 126 | 15.8 | 3.10 | – | 7940
Cc1cc(/C=C/C#N)cc(C)c1Nc1nc(Nc2ccc(C#N)cc2)ncc1C(=O)NCCc1ccccc1 [Compound 31] | 31.6 | 63.1 | 50.1 | 15.8 | 79.4 | 15.8 | 3.10 | – | 10000
Cc1cc(/C=C/C#N)cc(C)c1Nc1nc(Nc2ccc(C#N)cc2)ncc1C(=O)NCCc1cccc(F)c1 [Compound 32] | 39.8 | 79.4 | 79.4 | 15.8 | 100 | 12.6 | 3.10 | – | 10000
CCOC(=O)CCCNC(=O)c1cnc(Nc2ccc(C#N)cc2)nc1Nc1c(C)cc(/C=C/C#N)cc1C [Compound 45] | 6.31 | – | 15.8 | 2 | 20 | 2.51 | >4.00 | – | 1000
Cc1cc(/C=C/C#N)cc(C)c1Nc1nc(Nc2ccc(C#N)cc2)ncc1C(=O)NCCC#N [Compound 46] | 7.94 | – | 39.8 | 3.98 | 31.6 | 7.94 | >3.50 | 15.8 | 158
Cc1cc(/C=C/C#N)cc(C)c1Oc1nc(Nc2ccc(C#N)cc2)ncc1C(=O)NCc1ccncc1 [Compound 58] | – | – | 100 | 6.31 | 158 | 2 | >4.10 | 316 | 3160
